Measurements as given in ChEMBL document CHEMBL3112491, “3-(5-)-Amino-o-diarylisoxazoles: regioselective synthesis and antitubulin activity” (2014).

How the values were obtained:
Type in all cases: functional
NCI-H460 = assay: Growth inhibition of human NCI-H460 cells after 48 hrs by sulforhodamine B assay; conditions: NCI-H460, 48 h
SK-OV-3 = assay: Growth inhibition of human SKOV3 cells after 48 hrs by sulforhodamine B assay; conditions: SK-OV-3, 48 h
[1] = Growth inhibition of human OVCAR5 cells after 48 hrs by sulforhodamine B assay; conditions: OVCAR-5, 48 h
NCI-H322M = assay: Growth inhibition of human NCI-H322M cells after 48 hrs by sulforhodamine B assay
786-0 = assay: Growth inhibition of human 786-0 cells after 48 hrs by sulforhodamine B assay; conditions: 786-0, 48 h
U-251 = assay: Growth inhibition of human U251 cells after 48 hrs by sulforhodamine B assay; conditions: U-251, 48 h
MOLT-4 = assay: Growth inhibition of human MOLT4 cells after 48 hrs by sulforhodamine B assay; conditions: MOLT-4, 48 h
HL-60(TB) = assay: Growth inhibition of human HL-60(TB) cells after 48 hrs by sulforhodamine B assay; conditions: HL-60, 48 h
MDA-MB-468 = assay: Growth inhibition of human MDA-MB-468 cells after 48 hrs by sulforhodamine B assay; conditions: MDA-MB-468, 48 h
IGROV-1 = assay: Growth inhibition of human IGROV1 cells after 48 hrs by sulforhodamine B assay; conditions: IGROV-1, 48 h
[2] = Growth inhibition of human SF539 cells after 48 hrs by sulforhodamine B assay; conditions: SF-539, 48 h
[3] = Growth inhibition of human NCI-ADR-RES cells after 48 hrs by sulforhodamine B assay
UACC-62 = assay: Growth inhibition of human UACC62 cells after 48 hrs by sulforhodamine B assay; conditions: UACC-62, 48 h
CCRF-CEM = assay: Growth inhibition of human CCRF-CEM cells after 48 hrs by sulforhodamine B assay
MDA-MB-231 = assay: Growth inhibition of human MDA-MB-231 cells after 48 hrs by sulforhodamine B assay; conditions: MDA-MB-231, 48 h
[4] = Growth inhibition of human HCC2998 cells after 48 hrs by sulforhodamine B assay; conditions: HCC 2998, 48 h
OVCAR-8 = assay: Growth inhibition of human OVCAR8 cells after 48 hrs by sulforhodamine B assay; conditions: OVCAR-8, 48 h
A549 = assay: Growth inhibition of human A549/ATCC cells after 48 hrs by sulforhodamine B assay; conditions: A549, 48 h
HCT-116 = assay: Growth inhibition of human HCT116 cells after 48 hrs by sulforhodamine B assay; conditions: HCT-116, 48 h
[5] = Growth inhibition of human RXF393 cells after 48 hrs by sulforhodamine B assay; conditions: RXF 393, 48 h
PC-3 = assay: Growth inhibition of human PC3 cells after 48 hrs by sulforhodamine B assay; conditions: PC-3, 48 h
OVCAR-3 = assay: Growth inhibition of human OVCAR3 cells after 48 hrs by sulforhodamine B assay; conditions: OVCAR-3, 48 h
NCI-H522 = assay: Growth inhibition of human NCI-H522 cells after 48 hrs by sulforhodamine B assay; conditions: NCI-H522, 48 h
CAKI-1 = assay: Growth inhibition of human CAKI-1 cells after 48 hrs by sulforhodamine B assay; conditions: CAKI-1, 48 h
MCF7 = assay: Growth inhibition of human MCF7 cells after 48 hrs by sulforhodamine B assay; conditions: MCF7, 48 h
[6] = Growth inhibition of human UACC257 cells after 48 hrs by sulforhodamine B assay; conditions: UACC-257, 48 h
M14 = assay: Growth inhibition of human M14 cells after 48 hrs by sulforhodamine B assay; conditions: M14, 48 h
MDA-MB-435 = assay: Growth inhibition of human MDA-MB-435 cells after 48 hrs by sulforhodamine B assay; conditions: MDA-MB-435, 48 h
[7] = Growth inhibition of human UO31 cells after 48 hrs by sulforhodamine B assay; conditions: UO-31, 48 h
SK-MEL-2 = assay: Growth inhibition of human SK-MEL-2 cells after 48 hrs by sulforhodamine B assay; conditions: SK-MEL-2, 48 h
COLO 205 = assay: Growth inhibition of human COLO205 cells after 48 hrs by sulforhodamine B assay; conditions: COLO 205, 48 h
HCT-15 = assay: Growth inhibition of human HCT15 cells after 48 hrs by sulforhodamine B assay; conditions: HCT-15, 48 h
KM12 = assay: Growth inhibition of human KM12 cells after 48 hrs by sulforhodamine B assay; conditions: KM12, 48 h
HOP-62 = assay: Growth inhibition of human HOP62 cells after 48 hrs by sulforhodamine B assay; conditions: HOP-62, 48 h
[8] = Growth inhibition of human EKVX cells after 48 hrs by sulforhodamine B assay
LOX IMVI = assay: Growth inhibition of human LOXIMVI cells after 48 hrs by sulforhodamine B assay
SK-MEL-28 = assay: Growth inhibition of human SK-MEL-28 cells after 48 hrs by sulforhodamine B assay; conditions: SK-MEL-28, 48 h
SW-620 = assay: Growth inhibition of human SW620 cells after 48 hrs by sulforhodamine B assay; conditions: SW-620, 48 h
BT-549 = assay: Growth inhibition of human BT549 cells after 48 hrs by sulforhodamine B assay; conditions: BT-549, 48 h
[9] = Growth inhibition of human Hs 578T cells after 48 hrs by sulforhodamine B assay
[10] = Growth inhibition of human HOP92 cells after 48 hrs by sulforhodamine B assay; conditions: HOP-92, 48 h
SNB-75 = assay: Growth inhibition of human SNB75 cells after 48 hrs by sulforhodamine B assay; conditions: SNB-75, 48 h
DU-145 = assay: Growth inhibition of human DU145 cells after 48 hrs by sulforhodamine B assay; conditions: DU-145, 48 h
HT-29 = assay: Growth inhibition of human HT-29 cells after 48 hrs by sulforhodamine B assay; conditions: HT-29, 48 h
NCI-H226 = assay: Growth inhibition of human NCI-H226 cells after 48 hrs by sulforhodamine B assay; conditions: NCI-H226, 48 h
A498 = assay: Growth inhibition of human A498 cells after 48 hrs by sulforhodamine B assay; conditions: A498, 48 h
ACHN = assay: Growth inhibition of human ACHN cells after 48 hrs by sulforhodamine B assay
RPMI-8226 = assay: Growth inhibition of human RPMI8226 cells after 48 hrs by sulforhodamine B assay; conditions: RPMI-8226, 48 h
Paracentrotus lividus [11] = assay: Antimitotic activity in sea urchin fertilized egg assessed as cleavage arrest treated at 8 to 20 mins post-fertilization measured at 2.5 to 5.5 hrs post-fertilization
SF-268 = assay: Growth inhibition of human SF268 cells after 48 hrs by sulforhodamine B assay; conditions: SF-268, 48 h
SK-MEL-5 = assay: Growth inhibition of human SK-MEL-5 cells after 48 hrs by sulforhodamine B assay; conditions: SK-MEL-5, 48 h
SF-295 = assay: Growth inhibition of human SF295 cells after 48 hrs by sulforhodamine B assay; conditions: SF-295, 48 h
Paracentrotus lividus [12] = assay: Antimitotic activity in sea urchin fertilized egg assessed as cleavage alteration treated at 8 to 20 mins post-fertilization measured at 2.5 to 5.5 hrs post-fertilization
SN12C = assay: Growth inhibition of human SN12C cells after 48 hrs by sulforhodamine B assay
[13] = Growth inhibition of human OVCAR4 cells after 48 hrs by sulforhodamine B assay; conditions: OVCAR-4, 48 h
NCI-H23 = assay: Growth inhibition of human NCI-H23 cells after 48 hrs by sulforhodamine B assay; conditions: NCI-H23, 48 h
Malme-3M = assay: Growth inhibition of human MALME-3M cells after 48 hrs by sulforhodamine B assay
SR = assay: Growth inhibition of human SR cells after 48 hrs by sulforhodamine B assay
SNB-19 = assay: Growth inhibition of human SNB19 cells after 48 hrs by sulforhodamine B assay; conditions: SNB-19, 48 h
T47D = assay: Growth inhibition of human T47D cells after 48 hrs by sulforhodamine B assay
Paracentrotus lividus [14] = assay: Microtubule destabilizing activity in sea urchin free-swimming blastula assessed as embryo spinning treated at 9 to 10 hrs post-fertilization measured after 0.15 to 15 hrs
K562 = assay: Growth inhibition of human K562 cells after 48 hrs by sulforhodamine B assay; conditions: K562, 48 h
TK-10 = assay: Growth inhibition of human TK10 cells after 48 hrs by sulforhodamine B assay; conditions: TK-10, 48 h

## COc1ccc(-c2onc(N)c2-c2cc(OC)c3c(c2)OCO3)cc1
NCI-H460
  GI50: 3040 nM
SK-OV-3
  GI50: 4200 nM
[1]
  GI50: 8800 nM
NCI-H322M
  GI50: 5980 nM
786-0
  GI50: 6560 nM
U-251
  GI50: 2310 nM
MOLT-4
  GI50: 3280 nM
HL-60(TB)
  GI50: 1300 nM
MDA-MB-468
  GI50: 538 nM
IGROV-1
  GI50: 10600 nM
[2]
  GI50: 3250 nM
[3]
  GI50: 684 nM
UACC-62
  GI50: 2450 nM
CCRF-CEM
  GI50: 2470 nM
MDA-MB-231
  GI50: 3750 nM
[4]
  GI50: 2770 nM
OVCAR-8
  GI50: 4260 nM
A549
  GI50: 2740 nM
HCT-116
  GI50: 2010 nM
[5]
  GI50: 2940 nM
PC-3
  GI50: 4280 nM
OVCAR-3
  GI50: 2390 nM
NCI-H522
  GI50: 796 nM
CAKI-1
  GI50: 3690 nM
MCF7
  GI50: 962 nM
[6]
  GI50: 3160 nM
M14
  GI50: 1400 nM
MDA-MB-435
  GI50: 290 nM
[7]
  GI50: 14300 nM
SK-MEL-2
  GI50: 1320 nM
COLO 205
  GI50: 2440 nM
HCT-15
  GI50: 1140 nM
KM12
  GI50: 2230 nM
HOP-62
  GI50: 4590 nM
[8]
  GI50: 6580 nM
LOX IMVI
  GI50: 3260 nM
SK-MEL-28
  GI50: 5620 nM
SW-620
  GI50: 495 nM
BT-549
  GI50: 2430 nM
[9]
  GI50: 2940 nM
[10]
  GI50: 6350 nM
SNB-75
  GI50: 1750 nM
DU-145
  GI50: 3990 nM
HT-29
  GI50: 1490 nM
NCI-H226
  GI50: 28000 nM
A498
  GI50: 1810 nM
ACHN
  GI50: 6740 nM
RPMI-8226
  GI50: 4070 nM
Paracentrotus lividus [11]
  EC: >4 µM
SF-268
  GI50: 13300 nM
SK-MEL-5
  GI50: 2450 nM
SF-295
  GI50: 2320 nM
Paracentrotus lividus [12]
  EC: 0.2 µM
SN12C
  GI50: 5130 nM
[13]
  GI50: 16100 nM
NCI-H23
  GI50: 3080 nM
Malme-3M
  GI50: 8510 nM
SR
  GI50: 449 nM
SNB-19
  GI50: 6740 nM
T47D
  GI50: 4410 nM
Paracentrotus lividus [14]
  EC: >10 µM
K562
  GI50: 519 nM
TK-10
  GI50: 12300 nM

## COc1ccc(-c2c(-c3cc(OC)c4c(c3)OCO4)noc2N)cc1
NCI-H460
  GI50: 35.2 nM
SK-OV-3
  GI50: 31.8 nM
786-0
  GI50: 73.5 nM
U-251
  GI50: 30.8 nM
MOLT-4
  GI50: 71.4 nM
HL-60(TB)
  GI50: 35.1 nM
MDA-MB-468
  GI50: 18.7 nM
IGROV-1
  GI50: 99.7 nM
[2]
  GI50: 38.1 nM
[3]
  GI50: 19.1 nM
UACC-62
  GI50: 59.7 nM
CCRF-CEM
  GI50: 36.3 nM
MDA-MB-231
  GI50: 124 nM
[4]
  GI50: 118 nM
OVCAR-8
  GI50: 58.5 nM
A549
  GI50: 59.6 nM
HCT-116
  GI50: 46.3 nM
[5]
  GI50: 22.3 nM
PC-3
  GI50: 44 nM
OVCAR-3
  GI50: 21.9 nM
NCI-H522
  GI50: < 10 nM
MCF7
  GI50: 31.5 nM
M14
  GI50: 32.3 nM
MDA-MB-435
  GI50: < 10 nM
[7]
  GI50: 82.2 nM
SK-MEL-2
  GI50: 25.9 nM
COLO 205
  GI50: 34.1 nM
HCT-15
  GI50: 48.2 nM
KM12
  GI50: 18.1 nM
HOP-62
  GI50: 30.2 nM
[8]
  GI50: 10700 nM
LOX IMVI
  GI50: 57.9 nM
SK-MEL-28
  GI50: 13.6 nM
SW-620
  GI50: 29.4 nM
BT-549
  GI50: 3920 nM
[9]
  GI50: 32.4 nM
SNB-75
  GI50: 33.9 nM
DU-145
  GI50: 47.2 nM
HT-29
  GI50: 34.6 nM
NCI-H226
  GI50: 121 nM
A498
  GI50: 22 nM
RPMI-8226
  GI50: 49.9 nM
Paracentrotus lividus [11]
  EC: 0.002 µM
SF-268
  GI50: 148 nM
SK-MEL-5
  GI50: 29.8 nM
SF-295
  GI50: 22.8 nM
Paracentrotus lividus [12]
  EC: 0.0005 µM
SN12C
  GI50: 217 nM
[13]
  GI50: 114 nM
NCI-H23
  GI50: 37.8 nM
SR
  GI50: < 10 nM
SNB-19
  GI50: 65.8 nM
T47D
  GI50: 39.4 nM
Paracentrotus lividus [14]
  EC: 0.05 µM
K562
  GI50: 19.3 nM
